According to patent publication US20190380978A1, “SOLID ORAL DOSAGE FORMS OF 2R,6R-HYDROXYNORKETAMINE OR DERIVATIVES THEREOF” (priority 2016, published 2019):
Where a name gives a salt, the structure may show the parent alone.

Tests used:
UGT2B7 = UGT2B7 (Homo sapiens, UniProt P16662); assay: UGT inhibition assay, UGT2B7; type: in vitro ADME
UGT1A1 = molecular target: T1, UGT1A1 (Homo sapiens, UniProt P22309); assay: UGT inhibition assay, UGT1A1; type: in vitro ADME
T1 sequence (P22309 26-533): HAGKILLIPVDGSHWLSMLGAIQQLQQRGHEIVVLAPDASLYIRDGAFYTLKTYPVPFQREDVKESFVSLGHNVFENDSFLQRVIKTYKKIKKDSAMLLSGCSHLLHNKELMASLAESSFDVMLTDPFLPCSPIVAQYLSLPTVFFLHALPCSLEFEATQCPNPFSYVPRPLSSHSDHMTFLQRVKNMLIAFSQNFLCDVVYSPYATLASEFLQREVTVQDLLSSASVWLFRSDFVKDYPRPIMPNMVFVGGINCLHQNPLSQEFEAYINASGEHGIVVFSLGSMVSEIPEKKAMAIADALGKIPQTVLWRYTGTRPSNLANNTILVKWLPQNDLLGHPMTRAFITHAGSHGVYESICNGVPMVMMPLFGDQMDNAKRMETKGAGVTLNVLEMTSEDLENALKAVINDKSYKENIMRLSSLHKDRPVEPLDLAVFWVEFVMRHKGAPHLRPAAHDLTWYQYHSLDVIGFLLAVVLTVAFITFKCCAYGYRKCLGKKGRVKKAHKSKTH
Source text: 2R,6R-hydroxynorketamine was therefore investigated for its potential to inhibit this isozyme, along with that of the major UGT isozyme, UGT1A1, using a UGT inhibition assay.

plasma binding proteins = conditions: background statement on SSRIs; cited from earlier work
in vitro = conditions: human

UGT2B7, sequence (P16662 24-529): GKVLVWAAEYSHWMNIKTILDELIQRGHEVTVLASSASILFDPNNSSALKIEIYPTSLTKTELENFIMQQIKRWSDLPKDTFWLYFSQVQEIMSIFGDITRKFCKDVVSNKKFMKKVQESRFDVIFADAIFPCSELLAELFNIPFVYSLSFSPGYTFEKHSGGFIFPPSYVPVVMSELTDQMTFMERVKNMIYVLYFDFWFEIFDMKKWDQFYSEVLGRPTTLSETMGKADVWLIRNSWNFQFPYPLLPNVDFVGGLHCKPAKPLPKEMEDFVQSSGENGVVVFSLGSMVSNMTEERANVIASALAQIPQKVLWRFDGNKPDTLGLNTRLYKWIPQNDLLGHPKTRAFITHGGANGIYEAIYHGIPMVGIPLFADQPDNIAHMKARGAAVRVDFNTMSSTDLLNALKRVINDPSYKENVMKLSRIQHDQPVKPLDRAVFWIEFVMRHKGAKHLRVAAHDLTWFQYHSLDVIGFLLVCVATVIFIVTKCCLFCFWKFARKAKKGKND

Structure (SMILES): N[C@@]1(c2ccccc2Cl)CCC[C@@H](O)C1=O [2R-6R-Hydroxynorketamine Hydrochloride, 2R,6R-hydroxynorketamine hydrochloride]
- IC50 (UGT2B7): > 100 µM
- IC50 (UGT1A1): > 100 µM

Structure (SMILES): COC(=O)N[C@H](C(=O)N[C@@H](Cc1ccccc1)[C@@H](O)CN(Cc1ccc(-c2ccccn2)cc1)NC(=O)[C@@H](NC(=O)OC)C(C)(C)C)C(C)(C)C [Atazanavir]
- IC50 (UGT1A1): 0.153 µM

Structure (SMILES): Fc1ccc([C@@H]2CCNC[C@H]2COc2ccc3c(c2)OCO3)cc1 [paroxetine]
- protein bound (plasma binding proteins): 95%

Structure (SMILES): CNCCC(Oc1ccc(C(F)(F)F)cc1)c1ccccc1 (centres unmarked) [fluoxetine]
- protein bound (plasma binding proteins): 94%

Structure (SMILES): CC(C)NCC(O)COc1cccc2ccccc12 (centres unmarked) [propranolol, reference compound]
- recovery (in vitro; Caco-2, Direction = A2B Mean % Recovery, Caco-2, A2B): 71.1%
- Papp A→B (in vitro; Caco-2, Direction = A2B Mean Papp, Caco-2, A2B, mean, n 2): 26.7 ×10⁻⁶ cm/s
- Papp A→B (in vitro; Caco-2, Direction = A2B Papp Replicate 1, Caco-2, A2B, replicate 1): 26 ×10⁻⁶ cm/s
- Papp A→B (in vitro; Caco-2, Direction = A2B Papp Replicate 2, Caco-2, A2B, replicate 2): 27.4 ×10⁻⁶ cm/s
- recovery (in vitro; Caco-2, Direction = B2A Mean % Recovery, Caco-2, B2A): 82.8%
- Papp B→A (in vitro; Caco-2, Direction = B2A Papp Replicate 2, Caco-2, B2A, replicate 2): 26.2 ×10⁻⁶ cm/s
